Laboratory results reported in PMC6895199, “A new antiviral scaffold for human norovirus identified with computer-aided approaches on the viral polymerase” (Scientific Reports, 2019).

Biological target: HuNoV (GII.4) RdRp (Norovirus Hu/GII.4/Sydney/NSW0514/2012/AU, UniProt K4L8Z7)
Assay: Quantitative fluorescent RdRp activity assay (PicoGreen, poly(C) template)
Type: biochemical, human norovirus Sydney 2012
Conditions: 20 µM; for inhibition at 20 µM: read-out: inhibition of HuNoV RdRp activity at fixed concentration
Procedure, shortened: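 Enzyme (400 ng) preincubated with compound 10 min at 30 °C, then reacted 15 min at 30 °C with 45 μM GTP, 10 ng/μL poly(C), 2.5 mM MnCl2, pH 7.5. Stopped with EDTA; dsRNA quantified by PicoGreen. Six concentrations (0.1–100 µM) gave IC50, or single 20 µM screen vs 0.5% DMSO.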

`O=C(NC(=S)Nc1ccc(N2CCN(C(=O)c3cccs3)CC2)cc1)c1sc2ccccc2c1Cl` [Compound 48, 3-Chloro-N-((4-(4-(thiophene-2-carbonyl)piperazin-1-yl)phenyl)carbamothioyl)benzo[b]thiophene-2-carboxamide, reference compound] gave an inhibition at 20 µM of 20%.
`Cc1ccc(C(=O)NC(=S)Nc2ccc(N3CCN(C(=O)c4cccs4)CC3)cc2)cc1` [Compound 52, 4-Methyl-N-((4-(4-(thiophene-2-carbonyl)piperazin-1-yl)phenyl)carbamothioyl)benzamide] was tested, and the inhibition at 20 µM was roughly 15%.
With `O=C(NC(=S)Nc1ccc(N2CCN(C(=O)c3nccs3)CC2)cc1)c1sc2ccccc2c1Cl` [Compound 56, 3-Chloro-N-((4-(4-(thiazole-2-carbonyl)piperazin-1-yl)phenyl)carbamothioyl)benzo[b]thiophene-2-carboxamide] the “inhibition of HuNoV RdRp activity at fixed concentration” value was “does not affect enzymatic inhibition activity”.
